Experimental data published in patent US20230002327A1, “SMALL-MOLECULE REGULATOR OF TLR8” (TSINGHUA UNIVERSITY, priority 2019, published 2023).

Experiments:
[1] = target: T1, TLR8 (Homo sapiens, UniProt Q9NR97); experiment: Inhibition of R848-induced signaling in HEK-Blue hTLR8 cell line (Quanti-Blue); assay type: cell-based; settings: HEK-Blue hTLR8 cell line; normalized, ligand+DMSO = 100% activity, untreated = 0%
T1 construct: host or cells: HEK-Blue hTLR8 (HEK293-derived SEAP reporter cells)
T1 sequence (Q9NR97 27-1041): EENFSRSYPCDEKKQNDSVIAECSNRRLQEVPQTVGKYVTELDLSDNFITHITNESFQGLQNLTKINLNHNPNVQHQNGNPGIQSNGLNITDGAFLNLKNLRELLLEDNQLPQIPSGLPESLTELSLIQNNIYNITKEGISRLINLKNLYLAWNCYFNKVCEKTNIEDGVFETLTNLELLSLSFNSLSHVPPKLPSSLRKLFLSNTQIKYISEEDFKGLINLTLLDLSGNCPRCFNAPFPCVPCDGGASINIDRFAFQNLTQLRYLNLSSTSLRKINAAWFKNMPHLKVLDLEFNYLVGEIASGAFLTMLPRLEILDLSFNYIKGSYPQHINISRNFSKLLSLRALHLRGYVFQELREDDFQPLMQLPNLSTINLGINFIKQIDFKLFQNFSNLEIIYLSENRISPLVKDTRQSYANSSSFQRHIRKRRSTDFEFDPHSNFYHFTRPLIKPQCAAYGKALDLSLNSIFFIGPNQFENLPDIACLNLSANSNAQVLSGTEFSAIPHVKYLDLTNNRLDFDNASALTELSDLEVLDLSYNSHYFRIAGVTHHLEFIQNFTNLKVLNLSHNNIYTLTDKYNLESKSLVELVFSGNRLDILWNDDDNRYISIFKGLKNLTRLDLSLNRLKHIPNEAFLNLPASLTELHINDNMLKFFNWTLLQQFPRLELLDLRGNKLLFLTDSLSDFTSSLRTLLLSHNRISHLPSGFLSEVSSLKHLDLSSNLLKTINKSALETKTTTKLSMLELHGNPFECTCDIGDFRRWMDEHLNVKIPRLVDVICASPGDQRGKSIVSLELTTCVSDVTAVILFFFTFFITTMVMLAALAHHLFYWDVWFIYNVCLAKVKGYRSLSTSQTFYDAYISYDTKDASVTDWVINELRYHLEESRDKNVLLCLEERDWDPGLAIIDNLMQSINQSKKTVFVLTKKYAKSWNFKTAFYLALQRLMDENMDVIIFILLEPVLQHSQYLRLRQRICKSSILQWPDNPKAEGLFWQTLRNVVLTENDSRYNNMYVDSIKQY
Procedure: (§1) HEK Blue hTLR8 cells or HEK Blue hTLR7 cells were cultured in DMEM medium supplemented with 10% fetal bovine serum, penicillin (100 U/mL) and streptomycin ([…]). Thereafter, cells were seeded in 96-well plate (45,000 cells per well), and were cultured for 24 hours in a humidified incubator (37° C., 5% CO2).
After 24 hours, the supernatant and suspending cells were aspirated and replaced with fresh serum-free DMEM.
(§2) After 24 hours, 50 μL of the medium was aspirated from each well and then added to a new 96-well plate, followed by the addition of 50 μL of Quanti-Blue in each well and the incubation at 37° C. in darkness. Changes in color would occur in the […] within 60 minutes, and the absorbance was measured at 620 nm by using the multi-mode plate reader Vrioskan Flash. Inhibition rate (%)=[R848 (OD620)−Compound (OD620)]/[R848 (OD620)−Control (OD620)]×100%. Among these, the control group was only added with the same amount of cells. Finally, the software Prism 6.0 was utilized to plot a graph and calculate IC50 values. Or, the activity of the cells treated with ligand and DMSO was defined as 100% activity, and the activity of the untreated cells was defined as 0% activity.

[2] = test system: HEK-Blue hTLR8 cell line; experiment: Toxicity test of compounds (CCK-8 cell viability); assay type: cell-based, human; design: key to WST1 (normalized toxicity effect): viability relative to control well (background-subtracted OD), 1 = control; settings: normalized cell viability, HEK-Blue cell lines
Procedure: In the 96-well plate used for the above-mentioned activity test of compounds (remaining 50 μL of culture medium containing cells), 5 μL of CellCountingKit-8 (CCK-8) Supermix was added to each well. Note that the introduction of air bubbles into the wells should be avoided since the air bubbles would interfere with the detection of OD value.
The culture plate was incubated in an incubator for 1 to 4 hours,
The edge of the 96-well plate could be tapped gently before reading the plate, and then the absorbance at 450 nm was measured by using the multi-mode plate reader.
Cell viability (%) was determined using the following formula: cell viability (%)=([Compound well ([…])−Background well (OD450)]/[Control well ([…])−Background well (OD450)])×100%. Among these, the background well was only added with the medium and CCK-8 reagent, the control well was only added with the medium, cells, R848 and CCK-8, and the compound wells were added with the medium, cells, R848, compounds in different concentrations, and CCK-8.

[3] = target: T2, TLR7 (Homo sapiens, UniProt Q9NYK1); experiment: Inhibition of R848-induced signaling in HEK-Blue hTLR7 cell line (Quanti-Blue); assay type: cell-based
T2 construct: host or cells: HEK-Blue hTLR7 (HEK293-derived SEAP reporter cells)
T2 sequence (Q9NYK1 27-1049): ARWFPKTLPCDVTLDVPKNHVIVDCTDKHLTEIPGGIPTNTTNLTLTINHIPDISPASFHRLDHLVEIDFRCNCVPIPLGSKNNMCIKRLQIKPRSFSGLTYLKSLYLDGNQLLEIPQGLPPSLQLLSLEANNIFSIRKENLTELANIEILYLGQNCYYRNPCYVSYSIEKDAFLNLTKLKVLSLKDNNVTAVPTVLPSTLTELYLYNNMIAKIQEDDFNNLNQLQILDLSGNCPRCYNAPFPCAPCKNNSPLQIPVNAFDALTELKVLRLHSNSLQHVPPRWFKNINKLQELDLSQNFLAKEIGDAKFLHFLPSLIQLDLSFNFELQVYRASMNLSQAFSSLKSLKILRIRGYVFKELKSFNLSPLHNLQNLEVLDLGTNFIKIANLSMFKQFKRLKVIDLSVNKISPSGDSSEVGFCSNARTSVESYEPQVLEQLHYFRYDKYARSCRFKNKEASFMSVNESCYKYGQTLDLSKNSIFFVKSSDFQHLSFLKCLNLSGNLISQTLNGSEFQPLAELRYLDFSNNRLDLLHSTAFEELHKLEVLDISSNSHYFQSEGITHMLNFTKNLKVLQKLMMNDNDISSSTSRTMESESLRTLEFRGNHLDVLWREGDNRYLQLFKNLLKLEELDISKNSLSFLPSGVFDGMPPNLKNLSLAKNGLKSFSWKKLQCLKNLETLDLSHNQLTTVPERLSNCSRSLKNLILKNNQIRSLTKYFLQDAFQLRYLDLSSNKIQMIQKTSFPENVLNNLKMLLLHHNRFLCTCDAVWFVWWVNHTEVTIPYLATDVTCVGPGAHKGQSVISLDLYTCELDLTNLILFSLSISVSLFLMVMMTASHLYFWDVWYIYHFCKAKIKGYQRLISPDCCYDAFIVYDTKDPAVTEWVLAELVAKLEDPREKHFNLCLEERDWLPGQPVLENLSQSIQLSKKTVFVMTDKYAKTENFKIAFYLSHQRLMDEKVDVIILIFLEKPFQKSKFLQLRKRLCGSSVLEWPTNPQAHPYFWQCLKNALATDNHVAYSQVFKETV
Procedure: as §1
After 24 hours, the supernatant and suspending cells were aspirated and replaced with fresh serum-free DMEM. Cells were treated with 1 μg/mL of R848 (agonist of TLR7/8) or 5 μg/mL of ssRNA40/LyoVec or 5 μg/mL of ORN06/LyoVec (InvivoGen) and compounds with specified concentrations, and were placed in a humidified incubator (37° C., 5% CO2) for co-culture.
as §2

Remaining R848-induced TLR8 signaling (normalized activity; ligand+DMSO = 1, untreated = 0) [1] | TLR7 (normalized inhibitory effect on R848-induced signaling) [3] | Compound | WST1 (normalized toxicity effect) [2]
1.0 ± 0.2 | 0.8 ± 0.1 | CCOCc1nc(C(=N)N)c(-c2ccccc2)n1CC(C)(C)O [Compound 39, 2-(ethoxymethyl)-1-(2-hydroxy-2-methylpropyl)-5-phenyl-1H-imidazole-4-carboxamidine] | 0.7 ± 0.2
0.7 ± 0.1 | 1.0 ± 0.1 | CCOCc1nc(C(N)=O)c(-c2ccccc2)n1CC(C)(C)O [Compound 40, 2-(ethoxymethyl)-1-(2-hydroxy-2-methylpropyl)-5-phenyl-1H-imidazole-4-carboxamide] | 0.8 ± 0.3
1.1 ± 0.3 | 1.0 ± 0.1 | CCOCc1ncc(-c2ccccc2)n1CC(C)(C)O [Compound 50, 1-[2-(ethoxymethyl)-5-phenyl-1H-imidazole-1-yl]-2-methylpropan-2-ol] | 0.9 ± 0.2
0.01 ± 0.01 | 0.1 ± 0.1 | CCOCc1nc(Br)c(-c2ccccc2)n1CC(C)C [Compound 57, 4-bromo-2-(ethoxymethyl)-1-(2-methylpropyl)-5-phenyl-1H-imidazole] | 0.7 ± 0.1
0.9 ± 0.2 | 0.9 ± 0.2 | CCOCc1nc(C(=O)OC)c(-c2ccccc2)n1CC(C)(C)O [Compound 42, methyl 2-(ethoxymethyl)-1-(2-hydroxy-2-methylpropyl)-5-phenyl-1H-imidazole-4-carboxylate] | 0.9 ± 0.1
0.3 ± 0.1 | 1.0 ± 0.1 | CCOCc1nc(I)c(-c2ccc(-c3ccccc3)cc2)n1CC(C)(C)O [Compound 60, 1-(5-([1,1′-biphenyl]-4-yl)-2-(ethoxymethyl)-4-iodo-1H-imidazole-1-yl)-2-methylpropan-2-ol] | 0.6 ± 0.1
1.0 ± 0.2 | 0.8 ± 0.2 | CCOCc1nc(CF)c(-c2ccccc2)n1CC(C)(C)O [Compound 46, 1-[2-(ethoxymethyl)-4-(fluoromethyl)-5-phenyl-1H-imidazole-1-yl]-2-methylpropan-2-ol] | 0.9 ± 0.3
1.1 ± 0.2 | 1.0 ± 0.2 | CCOCc1nc(C#N)c(-c2ccccc2)n1CC(C)(C)O [Compound 38, 2-(ethoxymethyl)-1-(2-hydroxy-2-methylpropyl)-5-phenyl-1H-imidazole-4-carbonitrile] | 0.7 ± 0.3
1.0 ± 0.3 | 0.9 ± 0.2 | CCOCc1nc(COC)c(-c2ccccc2)n1CC(C)(C)O [Compound 44, 1-[2-(ethoxymethyl)-4-(methoxymethyl)-5-phenyl-1H-imidazole-1-yl]-2-methylpropan-2-ol] | 0.8 ± 0.2
0.6 ± 0.1 | 1.1 ± 0.2 | CCOCc1nc(Cl)c(-c2ccccc2)n1CC(C)(C)O [Compound 51, 1-[4-chloro-2-(ethoxymethyl)-5-phenyl-1H-imidazole-1-yl]-2-methylpropan-2-ol] | 0.9 ± 0.2
